Common to all, as to test: NCI tumour cell line growth inhibition, 48 h
Assay [1] concerns NCI-H460 lung.
Assay [2] deals with NCI-H522 lung.
Assay [3] has as its system OVCAR-3 ovarian.
The subject of assay [4] is SF-268 CNS.
Assay [5] relates to SF-295 CNS.
In assay [6] the test system is K-562 leukemia.
Assay [7] deals with U251 CNS.
The test system of assay [8] is A549 NSCLC.
Assay [9] relates to UACC-257 melanoma.
The test system of assay [10] is HCT-116 colon.
In assay [11] the test system is HL-60(TB) leukemia.

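Growth conditions: 96-well plates. Treatment: test compound, 48 hours, 5 concentrations. Analysis: linear interpolation between bracketing concentrations; unreached endpoints set to highest concentration. GI50: concentration for 50% inhibition of growth. Definition used: TGI = concentration required for complete inhibition of growth.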

Take `N#CN=[N+]([O-])c1ccc(C(=O)O)cc1`: the TGI in [1] was more than 100 µM; in assay [2], 40.7 µM; in assay [3], 29.7 µM; in [4], 35.5 µM; in assay [5] it was more than 100 µM; in [6], 38.4 µM. The TGI in assay [7] was 33 µM; in [8], more than 100 µM; in assay [9], 32.7 µM.

As to `CSc1nc(NC2OCC(O)C(O)C2O)c(N)c(=O)[nH]1` (stereo not given), the TGI in assay [1], in [2], in assay [3], in [4], in [10] and in assay [5] was more than 100 µM in each case. Moreover, the TGI in [6], in assay [11], in assay [7], in assay [8] and in assay [9] was more than 100 µM in each case.

Take `Cc1cc2c(cc1C)OC(=O)CC2`: the TGI in assay [1], in assay [2], in [3], in [4], in [10] and in assay [5] was more than 100 µM each time. Further, the TGI in assay [6], in [11], in [7], in [8] and in assay [9] was more than 100 µM each time.

On to `NCCCOc1ccc([N+](=O)[O-])cc1Cl`, for which the TGI in assay [1] was more than 100 µM; in assay [2], 18.2 µM; in assay [3], more than 100 µM; in assay [4] it was more than 100 µM; in [10], more than 100 µM; in [5], more than 100 µM. Besides, the TGI in [6], in [11], in [7], in [8] and in assay [9] was more than 100 µM throughout.

Turning to `CC(=O)c1ccc2c(c1)c1c(C)c3c[n+](C)ccc3c(C)c1n2C`, the TGI in assay [1] is 15.1 µM; in assay [2] it was more than 100 µM; in assay [3] it was more than 65.6 µM; in [4] it was 3.52 µM; in assay [10] it was 18.8 µM; in [5], 10.3 µM. In addition, the TGI in assay [6] is more than 72.2 µM; in [11], more than 68.6 µM; in assay [7], 11.9 µM; in [8] it was more than 100 µM; in assay [9], 36.2 µM.

As for `C/C(N=NS(=O)(=O)c1ccccc1)=C1\C=CC=CN1O`, the TGI in [1], in assay [2], in assay [3], in assay [4], in assay [10] and in assay [5] was more than 100 µM in each case. Also, the TGI in [11], in [7], in assay [8] and in assay [9] was more than 100 µM in each case.

With `Cc1cc(C)n(-c2nsc3ccccc23)n1`, the TGI in assay [1], in [3], in assay [4], in assay [10], in assay [6] and in [11] was more than 100 µM in each case. For the same compound, the TGI in assay [7], in [8] and in assay [9] was more than 100 µM in each case.

Consider `CC(=O)OCC1=C(C(=O)O)N2C(=O)C(NC(=O)CSc3ccncc3)C2SC1` (stereo not given), for which the TGI in assay [1], in assay [2], in [3], in [4], in assay [10] and in [5] was more than 100 µM throughout. Moreover, the TGI in assay [6], in assay [11], in assay [7], in [8] and in [9] was more than 100 µM each time.

Consider `CCOC(=O)NC(Nc1ncccn1)(C(=O)OCC)C(F)(F)F` (stereo not given), for which the TGI in assay [1], in assay [2], in [3], in assay [4], in assay [10] and in assay [5] was more than 100 µM throughout. The TGI in assay [6], in [11], in [7], in assay [8] and in assay [9] was more than 100 µM each time.

For the compound `CCN(CC)CCNc1ccc2nnn3c4ccc(C)cc4c(=O)c1c23`, the TGI in assay [1] is 13.9 µM; in assay [2], 20.5 µM; in assay [3] it was 29.9 µM; in [4] it was 22.3 µM; in assay [10], 15 µM; in [5], 18 µM. In addition, the TGI in assay [6] was determined as 25.9 µM; in assay [11], 16.8 µM; in assay [7] it was 24.7 µM; in [8], 19.3 µM; in assay [9], 26.5 µM.

Turning to `O=C1CSC(=S)N1`, the TGI in assay [1], in assay [2], in assay [3], in [4], in [10] and in assay [5] was more than 100 µM in each case. Besides, the TGI in assay [6], in assay [11], in assay [7], in assay [8] and in assay [9] was more than 100 µM throughout.

With `O=C1NC2=C(CCCC/C2=N\O)C12CCCCC2`, the TGI in assay [1], in [3], in [4], in assay [10], in assay [5] and in [6] was more than 100 µM in each case. For the same compound, the TGI in assay [11], in [7], in assay [8] and in [9] was more than 100 µM throughout.

On to `Fc1ccc(C2CC(c3cccc(Nc4ccncc4)c3)=NN2c2ccc(Cl)cc2)cc1` (stereo not given), for which the GI50 in assay [1] is 1.79 µM; in assay [2], 1.78 µM; in assay [3], 1.62 µM; in assay [4], 1.75 µM; in assay [10], 1.73 µM; in [5], 1.8 µM. In addition, the GI50 in assay [6] was 1.86 µM; in assay [11] it was 1.95 µM; in assay [9], 2 µM. In addition, the TGI in [1] is 3.35 µM; in assay [2], 3.68 µM; in assay [3] it was 3.07 µM; in assay [4], 3.45 µM; in assay [10], 3.39 µM; in assay [5], 3.23 µM. In addition, the TGI in assay [6] amounted to 4.86 µM; in assay [11], 4.22 µM; in assay [9] it was 4.15 µM.

In the case of `Cc1ccc2c(c1)C(=O)N(N(C)C)CC(=O)N2`, the TGI in assay [1], in assay [2], in assay [3], in assay [4], in assay [10] and in assay [5] was more than 100 µM throughout. Moreover, the TGI in assay [6], in assay [11], in assay [7], in assay [8] and in [9] was more than 100 µM throughout.

(Values after PubChem BioAssay (NCI).)
